Tested on: cancer/testis antigens (MAGE-A1, -A3, -A4, -A6, -A10, -A12, NY-ESO-1, GAGE-3-7, BORIS) in proliferating lymphocytes
Assay: RT-PCR analysis of cancer/testis antigen expression in 5-Aza-CdR-treated proliferating lymphocytes

SMILES: Nc1ncn([C@H]2C[C@H](O)[C@@H](CO)O2)c(=O)n1 [Culture 5-Aza-CdR, 5-Aza-2′-deoxycytidine]
- induction of CTA expression (RT-PCR) (10 μM 5-aza-2′-deoxycytidine, 150 IU/ml IL-2, 3 days, lymphocytes expanded with autologous mature dendritic cells): all the investigated antigens are present in the induced lymphocytes
- CTA expression, cultures from log phase of growth (day 8) versus plateau (day 10) (10 μM 5-aza-2′-deoxycytidine, 3 days): higher expression in cultures taken from log phase of growth
- most easily inducible CTA (preliminary experiments on kinetics and concentration dependence (not shown)): MAGE-A1, MAGE-A4 and MAGE-A12
